Assay results from the NIST ThermoML archive (doi:10.1021/acs.jced.8b00537).

Test: xn = mol fraction of the nth substance listed
Details: 100 kPa, Liquid; for speed of sound: Frequency=3 MHz, Single path-length method; for mass density: Vibrating tube method; for viscosity: Capillary tube (Ostwald / Ubbelohde) method

CC[S+](CC)CC.O=S(=O)([N-]S(=O)(=O)C(F)(F)F)C(F)(F)F [triethylsulfonium bis((trifluoromethyl)sulfonyl)imide] + CCCO
Details | mass density, 318.15 K [kg/m3] | mass density, 323.15 K [kg/m3] | mass density, 328.15 K [kg/m3] | speed of sound, 318.15 K [m/s] | speed of sound, 323.15 K [m/s] | speed of sound, 328.15 K [m/s] | viscosity, 323.15 K [mPa·s] | viscosity, 328.15 K [mPa·s] | viscosity, 333.15 K [mPa·s]
x1 = 0.04926 | 888 | 884 | 879 | – | 1113.8 | 1098.6 | 1.404 | 1.268 | 1.149
x1 = 0.1003 | 974 | 969 | 965 | – | 1109.1 | 1095.1 | 1.833 | 1.648 | 1.489
x1 = 0.1993 | 1097 | 1092 | 1087 | – | 1117.1 | 1104.3 | 2.651 | 2.38 | 2.148
x1 = 0.3008 | 1185 | 1180 | 1175 | – | 1129.2 | 1117.2 | – | 3.13 | 2.825
x1 = 0.3991 | 1249 | 1244 | 1239 | – | 1141.1 | 1129.5 | 4.67 | 4.187 | 3.775
x1 = 0.5023 | 1300 | 1295 | 1290 | 1164.2 | 1152.9 | 1141.6 | 5.379 | 4.822 | 4.346
x1 = 0.5987 | 1338 | 1334 | 1329 | 1171.9 | 1160.8 | 1149.9 | 6.831 | 6.099 | 5.483
x1 = 0.6987 | 1371 | 1366 | 1362 | 1179.6 | 1168.8 | 1158.1 | 8.347 | 7.438 | 6.667
x1 = 0.7947 | 1397 | 1392 | 1388 | 1185.8 | 1175.2 | 1164.7 | 10.12 | 8.976 | –
x1 = 0.903 | 1422 | 1417 | 1412 | 1191.9 | 1181.5 | 1171.2 | 12.31 | 10.86 | –
x1 = 1 | 1441 | 1436 | 1431 | 1203.1 | 1193.7 | 1184.7 | 14.31 | 12.5 | –
